Results: ChEMBL document CHEMBL1201862, “PubChem BioAssay data set” (2004)
Calls of active or inactive are those of the source.

How the values were obtained:
[1] = target: G-protein coupled receptor 55 (Homo sapiens, UniProt Q9Y2T6); assay: selective activators of receptor GPR55 – imaging, U2OS cells, beta-arrestin-GFP redistribution, primary screen (AID 1961); assay type: functional
[2] = target: Glucose-6-phosphate 1-dehydrogenase (Homo sapiens, UniProt P11413); assay: inhibition of Homo sapiens G6PD, dose series – biochemical, fluorescence, selectivity assay for P. falciparum G6PD inhibitor project, dose response (AID 504792); assay type: functional
[3] = target: T1, Tyrosine-protein phosphatase non-receptor type 5 (Homo sapiens, UniProt P54829); assay: PTPN5 enzyme inhibition – biochemical, fluorescence intensity, uHTS hits, confirmation (AID 602372); assay type: functional; settings: read-out: IC50_Mean
T1 sequence (P54829 whole entry): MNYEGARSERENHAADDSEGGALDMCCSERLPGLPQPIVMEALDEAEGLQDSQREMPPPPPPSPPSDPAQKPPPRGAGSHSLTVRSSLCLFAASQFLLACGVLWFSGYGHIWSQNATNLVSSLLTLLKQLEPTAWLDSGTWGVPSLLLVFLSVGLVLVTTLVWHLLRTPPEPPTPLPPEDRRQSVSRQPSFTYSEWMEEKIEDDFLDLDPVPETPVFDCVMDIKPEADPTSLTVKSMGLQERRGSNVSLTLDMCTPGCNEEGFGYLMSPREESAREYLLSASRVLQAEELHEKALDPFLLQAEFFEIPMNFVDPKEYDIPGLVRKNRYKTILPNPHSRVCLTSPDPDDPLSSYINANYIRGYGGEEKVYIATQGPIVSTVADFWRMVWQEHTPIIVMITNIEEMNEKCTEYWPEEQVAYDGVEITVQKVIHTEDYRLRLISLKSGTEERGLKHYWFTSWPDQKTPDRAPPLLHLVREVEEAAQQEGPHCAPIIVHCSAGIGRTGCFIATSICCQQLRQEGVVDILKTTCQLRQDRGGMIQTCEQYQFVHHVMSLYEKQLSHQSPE

[4] = target: T2, Dual specificity protein phosphatase 6 (Rattus norvegicus, UniProt Q64346); assay: inhibition of rat DUSP6 enzyme activity – biochemical, in vitro, primary screen (AID 425)
T2 sequence (Q64346 whole entry): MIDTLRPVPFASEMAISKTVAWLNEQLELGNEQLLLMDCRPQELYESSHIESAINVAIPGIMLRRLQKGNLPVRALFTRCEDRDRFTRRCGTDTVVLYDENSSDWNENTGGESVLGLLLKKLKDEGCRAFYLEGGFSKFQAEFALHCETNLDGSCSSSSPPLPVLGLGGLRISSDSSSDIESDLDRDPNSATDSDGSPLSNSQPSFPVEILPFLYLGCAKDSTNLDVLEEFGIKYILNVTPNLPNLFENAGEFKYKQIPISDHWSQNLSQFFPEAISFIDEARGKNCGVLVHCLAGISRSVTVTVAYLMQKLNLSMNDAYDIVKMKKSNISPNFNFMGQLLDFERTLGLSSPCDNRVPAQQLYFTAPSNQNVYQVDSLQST

[5] = target: T3, Dual specificity protein phosphatase 3 (Homo sapiens, UniProt P51452); assay: VHR1 phosphatase inhibitors, primary screen, biochemical, absorbance, uHTS (AID 1654)
[6] = target: T3, Dual specificity protein phosphatase 3; assay: VHR1 phosphatase inhibitors, biochemical (AID 1878)
[7] = target: T4, Tyrosine-protein phosphatase non-receptor type 11 (Homo sapiens, UniProt Q06124); assay: PTPN11 enzyme inhibitors – biochemical, selectivity assay for STEP inhibitor project, dose response (AID 602367); assay type: functional; settings: read-out: IC50_Mean
T4 sequence (Q06124 whole entry): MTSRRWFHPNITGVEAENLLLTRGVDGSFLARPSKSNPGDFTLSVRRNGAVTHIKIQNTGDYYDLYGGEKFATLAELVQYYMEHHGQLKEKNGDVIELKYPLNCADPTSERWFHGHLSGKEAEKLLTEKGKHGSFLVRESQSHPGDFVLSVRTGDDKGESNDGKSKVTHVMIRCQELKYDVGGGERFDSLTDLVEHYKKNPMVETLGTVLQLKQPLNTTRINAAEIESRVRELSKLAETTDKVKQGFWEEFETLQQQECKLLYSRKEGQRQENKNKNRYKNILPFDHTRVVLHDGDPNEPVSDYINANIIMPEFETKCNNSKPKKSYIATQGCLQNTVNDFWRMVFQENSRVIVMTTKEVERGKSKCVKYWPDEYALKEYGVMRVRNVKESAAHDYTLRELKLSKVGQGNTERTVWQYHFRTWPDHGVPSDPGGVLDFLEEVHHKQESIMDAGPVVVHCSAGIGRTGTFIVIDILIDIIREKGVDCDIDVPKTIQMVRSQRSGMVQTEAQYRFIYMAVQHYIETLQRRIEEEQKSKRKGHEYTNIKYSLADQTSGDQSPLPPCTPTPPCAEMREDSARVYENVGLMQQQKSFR

[8] = target: T5, Tyrosine-protein phosphatase non-receptor type 22 (Homo sapiens, UniProt Q9Y2R2); assay: lymphoid phosphatase LYP inhibitors – biochemical, selectivity assay for STEP inhibitor project, dose response (AID 624241); assay type: functional
T5 sequence (Q9Y2R2 whole entry): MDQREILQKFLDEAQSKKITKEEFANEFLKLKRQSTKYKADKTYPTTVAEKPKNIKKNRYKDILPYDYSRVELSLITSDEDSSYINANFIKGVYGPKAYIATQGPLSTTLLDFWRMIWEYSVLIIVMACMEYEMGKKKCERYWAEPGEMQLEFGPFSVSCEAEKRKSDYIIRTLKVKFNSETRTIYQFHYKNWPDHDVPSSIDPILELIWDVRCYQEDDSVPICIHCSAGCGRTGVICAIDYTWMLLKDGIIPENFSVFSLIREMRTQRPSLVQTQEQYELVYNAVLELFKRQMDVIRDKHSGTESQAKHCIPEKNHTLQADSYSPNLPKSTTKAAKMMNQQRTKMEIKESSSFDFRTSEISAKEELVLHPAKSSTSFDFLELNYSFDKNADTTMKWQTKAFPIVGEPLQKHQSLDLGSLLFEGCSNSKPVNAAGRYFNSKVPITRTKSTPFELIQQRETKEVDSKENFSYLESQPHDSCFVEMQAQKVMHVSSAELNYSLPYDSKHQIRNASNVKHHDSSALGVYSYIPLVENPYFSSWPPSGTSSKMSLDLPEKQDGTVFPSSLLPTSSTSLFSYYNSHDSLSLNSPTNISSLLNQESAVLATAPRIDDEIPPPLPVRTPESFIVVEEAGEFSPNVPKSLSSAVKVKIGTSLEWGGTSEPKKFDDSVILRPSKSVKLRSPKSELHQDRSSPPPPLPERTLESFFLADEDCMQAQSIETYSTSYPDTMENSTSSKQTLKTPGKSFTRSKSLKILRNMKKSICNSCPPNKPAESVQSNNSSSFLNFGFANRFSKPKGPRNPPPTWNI

[9] = target: DNA dC->dU-editing enzyme APOBEC-3A (Homo sapiens, UniProt P31941); assay: A3A deaminase inhibition for selectivity – biochemical, dose response (AID 504722); assay type: functional
[10] = target: T3, Dual specificity protein phosphatase 3; assay: VHR phosphatase inhibition, dose response, selectivity assay for STEP inhibitor project, biochemical (AID 602374); assay type: functional; settings: read-out: IC50_Mean
[11] = target: DNA dC->dU-editing enzyme APOBEC-3G (Homo sapiens, UniProt Q9HC16); assay: Dose Response confirmation of small molecule APOBEC3G DNA Deaminase Inhibitors via a fluorescence-based single-stranded DNA deaminase assay. [Related pubchem assays (depositor defined):AID493012, AID493028]; assay type: functional
Trypsin = Trypsin (Sus scrofa, UniProt P00761); assay: trypsin protease activity blockade – biochemical, quenched peptide fluorescence, cherry-pick, selectivity assay for Rce1 protease inhibitor project, dose response (AID 488789)
CAAX prenyl protease 2 = CAAX prenyl protease 2 (Saccharomyces cerevisiae S288c, UniProt Q03530); assay type: biochemical
[12] = target: T6, Tyrosine-protein phosphatase non-receptor type 7 (Homo sapiens, UniProt P35236); assay: redox-active compounds inhibiting HePTP phosphatase – biochemical, fluorescence, mechanism study (AID 2068); assay type: functional
T6 sequence (P35236 whole entry): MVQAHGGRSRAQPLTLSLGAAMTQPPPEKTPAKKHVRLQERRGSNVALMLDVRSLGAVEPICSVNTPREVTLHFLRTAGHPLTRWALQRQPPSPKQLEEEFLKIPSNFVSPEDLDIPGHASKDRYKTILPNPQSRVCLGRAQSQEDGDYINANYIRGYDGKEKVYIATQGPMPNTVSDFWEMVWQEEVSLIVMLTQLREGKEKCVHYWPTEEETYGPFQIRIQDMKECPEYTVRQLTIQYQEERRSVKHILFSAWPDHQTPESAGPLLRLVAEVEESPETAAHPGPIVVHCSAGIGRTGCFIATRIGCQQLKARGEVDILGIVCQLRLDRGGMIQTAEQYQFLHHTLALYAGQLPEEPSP

[13] = target: T3, Dual specificity protein phosphatase 3; assay: SAR VHR1 Fluorescent Assay for In Vitro dose response studies. [Related pubchem assays (depositor defined):AID1654, AID1661, AID1878, AID1992, AID2004, AID2070, AID2085]; assay type: functional
Streptococcus = assay: GAS UMAA2166 growth inhibition – luminescence, BacTiterGlo, counter-screen for streptokinase expression inhibitor project, dose response (AID 1915); assay type: functional, organism-based;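 further: potency for reduction of bacterial viability or growth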
[14] = target: T7, Serine/threonine-protein phosphatase (Candida dubliniensis (strain CD36 / CBS 7987 / NCPF 3949 / NRRLY-17841) (Yeast), UniProt B9W6M3); assay: blockers of CaCl2-induced CDRE-lacZ signaling – S. cerevisiae, luminescence, secondary, dose response (AID 2388); assay type: functional, cell-based;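 further: yeast reporter cells carrying a calcineurin-responsive lacZ construct stimulated with calcium chloride; luminescent beta-galactosidase reporter signal in whole cells rather than isolated phosphatase activity; potency for inhibition where a drop in reporter signal means calcineurin blockade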
T7 sequence (B9W6M3 whole entry): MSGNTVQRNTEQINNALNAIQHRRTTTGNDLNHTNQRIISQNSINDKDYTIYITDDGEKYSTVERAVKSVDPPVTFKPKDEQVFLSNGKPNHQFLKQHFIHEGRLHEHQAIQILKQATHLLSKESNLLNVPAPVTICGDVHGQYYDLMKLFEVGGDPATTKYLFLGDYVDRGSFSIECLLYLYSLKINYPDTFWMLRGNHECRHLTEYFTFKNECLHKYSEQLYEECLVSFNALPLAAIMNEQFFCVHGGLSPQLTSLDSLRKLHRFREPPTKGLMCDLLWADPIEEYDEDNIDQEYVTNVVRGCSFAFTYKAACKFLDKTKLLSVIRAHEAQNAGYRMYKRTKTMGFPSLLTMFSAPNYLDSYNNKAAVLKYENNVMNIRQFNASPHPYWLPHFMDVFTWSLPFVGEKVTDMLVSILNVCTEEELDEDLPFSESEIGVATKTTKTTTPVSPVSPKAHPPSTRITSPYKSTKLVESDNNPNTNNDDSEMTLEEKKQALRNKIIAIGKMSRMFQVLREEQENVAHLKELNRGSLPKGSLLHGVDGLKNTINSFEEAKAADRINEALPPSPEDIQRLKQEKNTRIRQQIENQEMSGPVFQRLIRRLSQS

[15] = fluconazole-exposed Candida albicans growth modulators – fluorescence, retest, confirmation (AID 2467); assay type: functional, cell-based
[16] = NIH3T3 cell viability loss – ATP luminescence, mouse fibroblasts, counter-screen, dose response (AID 2010); assay type: functional, cell-based;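 further: cells exposed to compound for about 90 hours before reading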
[17] = NIH-3T3 fibroblast cytotoxicity, dose response, cytotoxicity control, cell-based, fluorescence, Alamar Blue, secondary assay (AID 2327); assay type: functional;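 further: NIH-3T3 mouse fibroblasts cultured with fluconazole at 8 µg/mL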
cells [18] = assay type: functional, cell-based
Streptokinase A = target: T8, Streptokinase A (Streptococcus pyogenes serotype M1, UniProt P10520); assay: viability-normalized secreted streptokinase activity reduction – plasminogen activation absorbance, OD405, dose response (AID 1914); assay type: functional, Streptococcus pyogenes M1 GAS;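 further: secreted streptokinase activity via plasminogen activation per viability signal from cell pellet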
T8 sequence (P10520 whole entry): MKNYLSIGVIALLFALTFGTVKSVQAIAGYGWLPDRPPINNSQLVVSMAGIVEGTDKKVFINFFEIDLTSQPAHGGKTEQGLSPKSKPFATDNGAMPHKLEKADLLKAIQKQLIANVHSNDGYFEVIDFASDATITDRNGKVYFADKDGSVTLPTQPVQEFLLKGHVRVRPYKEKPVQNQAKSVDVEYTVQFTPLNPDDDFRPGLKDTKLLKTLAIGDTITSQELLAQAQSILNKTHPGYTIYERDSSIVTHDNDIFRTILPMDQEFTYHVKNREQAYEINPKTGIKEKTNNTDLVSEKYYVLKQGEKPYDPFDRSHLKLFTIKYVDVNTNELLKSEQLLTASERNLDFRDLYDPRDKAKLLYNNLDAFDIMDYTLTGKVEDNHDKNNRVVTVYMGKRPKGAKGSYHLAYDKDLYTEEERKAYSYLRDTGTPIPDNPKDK

INS1 = assay: INS-1E survival protection against cytokine death – cell-based, luminescence, retest, dose response (AID 449756); assay type: functional; settings: Rattus norvegicus;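 further: cell death triggered by IL-1 beta plus TNF-alpha plus IFN-gamma mixture; protective hits raise ATP signal compared with cytokine alone wells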
[19] = Trypanosoma cruzi growth suppression in host cells – NIH3T3 host cells, beta-gal luminescence, confirmation (AID 2044); assay type: functional, cell-based;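 further: intracellular parasites grown in NIH/3T3 mouse fibroblasts as host cells; luminescent beta-galactosidase reporter signal from transgenic T. cruzi replicating inside host cells; inhibitors lower the luminescence signal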
[20] = system: Streptococcus sp. 'group A'; assay: Streptococcus pyogenes SK(-)GAS viability under kanamycin – luminescence, BacTiterGlo, confirmation, counter-screen for streptokinase expression inhibitor project, dose response (AID 1900); assay type: functional, organism-based
[21] = target: ATP-dependent molecular chaperone HSP82 (Candida albicans (strain WO-1) (Yeast), UniProt C4YTQ8); assay: steroid-induced GRE reporter decrease in yeast – S. cerevisiae, luminescence, Hsp90 inhibitor project, dose response (AID 2400); assay type: functional, cell-based;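 further: beta-galactosidase luminescence from glucocorticoid response element reporter as proxy for Hsp90 function; inhibitor potency where signal loss means Hsp90 inhibition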
cells [22] = assay type: functional, cell-based; remark: listed apart in the source

T3 sequence (P51452 whole entry): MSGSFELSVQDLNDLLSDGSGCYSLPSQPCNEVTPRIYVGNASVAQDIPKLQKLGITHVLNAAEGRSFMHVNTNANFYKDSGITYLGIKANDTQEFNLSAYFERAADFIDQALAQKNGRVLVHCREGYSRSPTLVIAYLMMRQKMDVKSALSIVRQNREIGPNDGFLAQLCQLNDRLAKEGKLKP
Chain of G-protein coupled receptor 55 (Q9Y2T6 whole entry): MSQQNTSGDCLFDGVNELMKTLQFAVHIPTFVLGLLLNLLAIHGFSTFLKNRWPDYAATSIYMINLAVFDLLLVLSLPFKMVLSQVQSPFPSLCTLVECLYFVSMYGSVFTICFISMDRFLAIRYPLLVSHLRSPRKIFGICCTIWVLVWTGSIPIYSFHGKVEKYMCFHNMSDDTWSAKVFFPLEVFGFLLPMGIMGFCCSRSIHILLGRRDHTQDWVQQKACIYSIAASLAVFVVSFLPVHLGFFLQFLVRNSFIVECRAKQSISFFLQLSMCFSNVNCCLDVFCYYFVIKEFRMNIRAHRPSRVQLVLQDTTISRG
Chain of ATP-dependent molecular chaperone HSP82 (C4YTQ8 whole entry): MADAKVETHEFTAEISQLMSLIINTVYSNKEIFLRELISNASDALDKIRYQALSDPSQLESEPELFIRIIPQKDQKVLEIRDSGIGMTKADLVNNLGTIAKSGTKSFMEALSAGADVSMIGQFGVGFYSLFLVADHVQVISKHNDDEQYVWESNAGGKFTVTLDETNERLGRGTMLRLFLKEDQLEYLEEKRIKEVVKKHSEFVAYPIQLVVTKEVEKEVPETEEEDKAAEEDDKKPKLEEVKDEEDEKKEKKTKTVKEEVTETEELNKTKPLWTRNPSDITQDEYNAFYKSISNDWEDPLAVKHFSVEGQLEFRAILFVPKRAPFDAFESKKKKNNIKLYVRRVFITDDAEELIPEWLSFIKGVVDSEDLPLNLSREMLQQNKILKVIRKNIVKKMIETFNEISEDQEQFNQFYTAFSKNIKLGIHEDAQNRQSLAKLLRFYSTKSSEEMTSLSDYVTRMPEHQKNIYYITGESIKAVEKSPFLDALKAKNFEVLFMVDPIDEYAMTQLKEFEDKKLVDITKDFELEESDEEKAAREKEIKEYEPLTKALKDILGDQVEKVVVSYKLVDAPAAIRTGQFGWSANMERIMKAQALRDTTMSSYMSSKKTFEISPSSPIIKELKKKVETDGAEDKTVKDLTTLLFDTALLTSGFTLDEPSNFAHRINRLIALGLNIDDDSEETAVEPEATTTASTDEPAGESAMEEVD
Chain of DNA dC->dU-editing enzyme APOBEC-3G (Q9HC16 whole entry): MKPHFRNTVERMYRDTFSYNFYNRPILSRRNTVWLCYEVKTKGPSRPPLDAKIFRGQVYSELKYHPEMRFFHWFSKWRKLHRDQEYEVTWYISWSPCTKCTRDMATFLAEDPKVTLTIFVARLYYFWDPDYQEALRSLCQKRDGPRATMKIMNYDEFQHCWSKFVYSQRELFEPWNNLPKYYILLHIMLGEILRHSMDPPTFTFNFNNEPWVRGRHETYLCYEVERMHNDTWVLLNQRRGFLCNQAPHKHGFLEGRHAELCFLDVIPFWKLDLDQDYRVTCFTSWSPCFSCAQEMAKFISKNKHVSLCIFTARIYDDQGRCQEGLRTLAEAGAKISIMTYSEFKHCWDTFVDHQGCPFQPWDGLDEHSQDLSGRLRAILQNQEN
Chain of DNA dC->dU-editing enzyme APOBEC-3A (P31941 whole entry): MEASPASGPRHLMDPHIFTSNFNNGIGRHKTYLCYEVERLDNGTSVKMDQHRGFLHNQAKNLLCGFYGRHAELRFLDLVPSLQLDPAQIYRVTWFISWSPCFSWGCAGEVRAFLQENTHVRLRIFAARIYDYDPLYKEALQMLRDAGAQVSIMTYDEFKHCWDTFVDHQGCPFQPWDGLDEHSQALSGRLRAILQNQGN
Chain of Glucose-6-phosphate 1-dehydrogenase (P11413 whole entry): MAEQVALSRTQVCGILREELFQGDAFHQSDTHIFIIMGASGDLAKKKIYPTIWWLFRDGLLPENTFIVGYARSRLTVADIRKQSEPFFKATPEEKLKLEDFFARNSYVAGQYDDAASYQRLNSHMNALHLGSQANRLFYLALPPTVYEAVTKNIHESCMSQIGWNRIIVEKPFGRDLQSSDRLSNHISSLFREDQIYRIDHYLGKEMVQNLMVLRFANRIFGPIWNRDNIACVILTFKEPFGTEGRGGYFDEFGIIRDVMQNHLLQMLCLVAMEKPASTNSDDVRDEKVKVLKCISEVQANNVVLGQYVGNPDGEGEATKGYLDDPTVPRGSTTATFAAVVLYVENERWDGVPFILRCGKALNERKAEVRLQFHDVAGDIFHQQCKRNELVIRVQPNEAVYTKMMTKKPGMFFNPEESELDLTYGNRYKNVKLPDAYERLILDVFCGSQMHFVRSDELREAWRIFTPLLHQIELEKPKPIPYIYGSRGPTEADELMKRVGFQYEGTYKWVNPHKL
Chain of CAAX prenyl protease 2 (Q03530 whole entry): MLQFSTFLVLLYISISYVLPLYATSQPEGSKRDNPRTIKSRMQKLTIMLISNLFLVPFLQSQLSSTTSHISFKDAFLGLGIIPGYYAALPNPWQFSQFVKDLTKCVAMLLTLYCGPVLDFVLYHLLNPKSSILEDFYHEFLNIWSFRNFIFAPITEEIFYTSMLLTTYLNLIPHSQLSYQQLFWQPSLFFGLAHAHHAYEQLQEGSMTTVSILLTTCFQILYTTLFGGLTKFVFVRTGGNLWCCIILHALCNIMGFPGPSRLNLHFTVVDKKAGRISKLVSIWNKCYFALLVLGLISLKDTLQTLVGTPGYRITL
Chain of Trypsin (P00761 whole entry): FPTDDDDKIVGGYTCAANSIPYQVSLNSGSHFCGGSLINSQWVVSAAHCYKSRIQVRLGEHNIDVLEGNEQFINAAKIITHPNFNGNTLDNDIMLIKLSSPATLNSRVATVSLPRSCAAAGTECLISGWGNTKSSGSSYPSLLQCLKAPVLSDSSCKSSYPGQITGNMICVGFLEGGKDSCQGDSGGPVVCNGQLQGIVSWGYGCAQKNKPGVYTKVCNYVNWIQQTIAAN

Cc1cc2ncn(-c3nnnn3-c3ccccc3)c2cc1C
EC50 [1]: 20 µM (inactive)

CN1CCN(C(=S)C(=O)Nc2ccc(Br)cc2)CC1
IC50 [2]: > 80 µM (inactive)
IC50 [3]: 6.57 µM (active)
IC50 [4]: > 158 µM (not active)
IC50 [5]: 4 µM (active)
IC50 [6]: 8.52 µM (active)
IC50 [7]: 0.431 µM (active)
IC50 [8]: 9.73 µM (active)
IC50 [9]: > 100 µM (inactive)
IC50 [10]: 0.386 µM (active)
IC50 [11]: 5.11 µM (active)

C=CCOc1ccc(-c2nnc(S)o2)cc1
AC50 (Trypsin): 3.91 µM (active)
AC50 (CAAX prenyl protease 2): 22.6 µM (active)

O=C(Nc1ccc2nc(-c3ccco3)c(-c3ccco3)nc2c1)N1CCC(c2ccccc2)C1 (stereo not drawn)
IC50 [12]: 0.55 µM (active)
IC50 [13]: 14.7 µM (active)

CC1CCN(Cc2c(C(=O)N/N=C/c3cc(Cl)ccc3O)nnn2-c2nonc2N)CC1
EC50 (Streptococcus): > 150 µM (not active)
EC50 [14]: > 180 µM (inactive)
EC50 [15]: 0.508 µM (active)
EC50 [16]: 5.57 µM (active)
EC50 [1]: 4.16 µM (active)
EC50 [17]: > 150 µM (inconclusive)
EC50 (cells [18]): 10.7 µM (active)
EC50 (Streptokinase A): 31 µM (active)
AC50 (INS1): 0.457 µM (active)
EC50 [19]: 0.541 µM (active)
EC50 [20]: 27.3 µM (active)
EC50 [21]: > 150 µM (inactive)
EC50 (cells [22]): > 350 µM (not active)
